US9999690B2, “Labeled compounds and methods of imaging, diagnosing cartilage disorders and diseases, and monitoring cartilage health using labeled and unlabeled compounds” (Perosphere Inc., priority 2013, dated 2018)
Where “and” joins values, the source holds several entries; their conditions need not be identical. Equal values may be shown once.

Columns and labels:
[1] = Rat mass balance recovery (urine, feces, cage rinses and wipes, carcasses, expired air), Groups 2 and 3; format: in vivo; set-up: Mass Balance Recovery, Feces Subtotal / Mass Balance Recovery, Expired Air, Trap 1 / Mass Balance Recovery, Expired Air, Trap 1 Subtotal: unit not given here; details: for Mass Balance Recovery, Feces / Mass Balance Recovery, Cage Rinse / Mass Balance Recovery, Dose Site Wipe / Mass Balance Recovery, Urine / Mass Balance Recovery, Cage Wipe / Mass Balance Recovery, Carcass / Mass Balance Recovery, Feces Subtotal / Mass Balance Recovery, Cage Rinse Subtotal / Mass Balance Recovery, Urine Subtotal: rat Group 2, IV dose; for Mass Balance Recovery, Dose Site Wipe: 0 hrs; for Mass Balance Recovery, Cage Wipe / Mass Balance Recovery, Carcass: 96 hrs; for Mass Balance Recovery, Expired Air, Trap 1 / Mass Balance Recovery, Expired Air, Trap 1 Subtotal: rat Group 3, IV dose; for Mass Balance Recovery, TOTAL: rat Groups 2 and 3, IV dose
Method: (§1) A study was conducted to determine the pharmacokinetics, rates and routes of excretion with mass baseline and tissue distribution of radioactivity, after a single intravenous dose administration of formula XIII (also referred to as [^14C]DAP) was administered to the rats by tail vein intravenous injection at a
(§2) The study was conducted on 19 male rats divided into 4 groups. The first group of 6 rats was used for blood collection (Group 1); the second group of 4 rats was used for urine, feces, cage rinses and wipes and carcasses collection (Group 2); the third group of 4 rats was used for expired air collection (Group 3); the fourth group of 5 rats was used for terminal blood/serum and tissue distribution by Quantitative Whole-Body Autoradiography (QWBA) (Group 4).

[2] = Rat blood PK samples after intravenous injection, Group 1; format: in vivo; details: rat Group 1, IV injection, in ng-eq/g
Method: as §1, §2

[3] = In vivo toxicity study, rats; details: rat, read-out: Maximum tolerated dose
Method: A study was conducted to test the toxicity of labeled formula XIII in rats and dogs. Maximum tolerated doses were 40 mg/kg for rats and 35 mg/kg for dogs.

[4] = In vivo safety study in humans; details: intravenous bolus doses up to 200 mg
Method: A study was conducted to test the safety profile of labeled formula XIII in humans in intravenous bolus doses up to 200 mg.

[5] = 24-48 hrs, Mean, in % (unit assumed)
[6] = 24-48 hrs, individual rats 201M-204M, in % (unit assumed)
[7] = 48-72 hrs, Mean, in % (unit assumed)
[8] = 48-72 hrs, individual rats 201M-204M, in % (unit assumed)
[9] = 72-96 hrs, Mean, in % (unit assumed)
[10] = 72-96 hrs, individual rats 201M-204M, in % (unit assumed)
[11] = individual rats 201M-204M, in % (unit assumed)

SMILES: [2H]C1([2H])N(CCCNC(=O)[C@@H](N)CCCNC(=N)N)C([2H])([2H])C([2H])([2H])N(CCCNC(=O)[C@@H](N)CCCNC(=N)N)C1([2H])[2H] [formula XIII]
- Mass Balance Recovery, Feces ([1]; 0-8 hrs, Mean, in % (unit assumed)): 0.02
- Mass Balance Recovery, Feces ([1]; 0-8 hrs, individual rats 201M-204M): 0.00 and 0.04 (2×) and 0.01
- Mass Balance Recovery, Cage Rinse ([1]; 0-24 hrs, Mean, in % (unit assumed)): 1.74
- Mass Balance Recovery, Cage Rinse ([1]; 0-24 hrs, individual rats 201M-204M, in % (unit assumed)): 2.48 and 0.91 and 1.94 and 1.63
- Mass Balance Recovery, Dose Site Wipe ([1]; Mean): 0.01%
- Mass Balance Recovery, Dose Site Wipe ([1]; individual rats 201M-204M): 0.01% (3×) and 0%
- Mass Balance Recovery, Feces ([1]; 8-24 hrs, Mean, in % (unit assumed)): 1.82
- Mass Balance Recovery, Feces ([1]; 8-24 hrs, individual rats 201M-204M, in % (unit assumed)): 1.34 and 2.04 and 2.40 and 1.49
- Mass Balance Recovery, Cage Rinse [1, 5]: 0.32
- Mass Balance Recovery, Feces [1, 5]: 0.93
- Mass Balance Recovery, Urine [1, 5]: 3.71
- Mass Balance Recovery, Feces ([1]; 24-48 hrs, individual rats 201M-204M): 1.18 and 0.70 (2×) and 1.15
- Mass Balance Recovery, Cage Rinse [1, 6]: 0.37 and 0.21 and 0.38 and 0.30
- Mass Balance Recovery, Urine [1, 6]: 3.83 and 3.59 and 4.50 and 2.92
- Mass Balance Recovery, Cage Rinse [1, 7]: 0.18
- Mass Balance Recovery, Feces [1, 7]: 0.42
- Mass Balance Recovery, Urine [1, 7]: 1.58
- Mass Balance Recovery, Urine ([1]; 48-72 hrs, individual rats 201M-204M): 1.61% (2×) and 1.73% and 1.36%
- Mass Balance Recovery, Cage Rinse [1, 8]: 0.13 and 0.11 and 0.20 and 0.28
- Mass Balance Recovery, Feces [1, 8]: 0.46 and 0.41 and 0.54 and 0.26
- Mass Balance Recovery, Cage Rinse [1, 9]: 0.16
- Mass Balance Recovery, Feces [1, 9]: 0.25
- Mass Balance Recovery, Urine [1, 9]: 0.94
- Mass Balance Recovery, Cage Rinse [1, 10]: 0.12 and 0.11 and 0.24 and 0.15
- Mass Balance Recovery, Feces [1, 10]: 0.31 and 0.26 and 0.27 and 0.15
- Mass Balance Recovery, Urine [1, 10]: 0.97 and 1.03 and 0.96 and 0.79
- Mass Balance Recovery, Cage Wipe ([1]; Mean, in % (unit assumed)): 0.10
- Mass Balance Recovery, Carcass ([1]; Mean, in % (unit assumed)): 2.71
- Mass Balance Recovery, Cage Wipe [1, 11]: 0.08 and 0.06 and 0.20 and 0.04
- Mass Balance Recovery, Carcass [1, 11]: 2.74 and 2.80 and 2.60 and 2.68
- Mass Balance Recovery, Feces Subtotal ([1]; Mean): 3.44
- Mass Balance Recovery, Cage Rinse Subtotal ([1]; Mean, in % (unit assumed)): 2.39
- Mass Balance Recovery, Urine Subtotal ([1]; Mean, in % (unit assumed)): 89.51
- Mass Balance Recovery, Feces Subtotal ([1]; individual rats 201M-204M): 3.29 and 3.45 and 4.37 and 2.64
- Mass Balance Recovery, Cage Rinse Subtotal [1, 11]: 3.10 and 1.34 and 2.76 and 2.36
- Mass Balance Recovery, Urine Subtotal [1, 11]: 89.44 and 90.60 and 87.85 and 90.14
- Mass Balance Recovery, Expired Air, Trap 1 ([1]; 0-24 hrs, Mean): 0.03
- Mass Balance Recovery, Expired Air, Trap 1 ([1]; 0-24 hrs, individual rats 301M-304M): 0.03 (3×) and 0.02
- Mass Balance Recovery, Expired Air, Trap 1 ([1]; 24-48 hrs, Mean): 0.00
- Mass Balance Recovery, Expired Air, Trap 1 ([1]; 24-48 hrs, individual rats 301M-304M): 0.00
- Mass Balance Recovery, Expired Air, Trap 1 ([1]; 48-72 hrs, Mean): 0.01
- Mass Balance Recovery, Expired Air, Trap 1 ([1]; 48-72 hrs, individual rats 301M-304M): 0.00 (3×) and 0.05
- Mass Balance Recovery, Expired Air, Trap 1 Subtotal ([1]; Mean): 0.04
- Mass Balance Recovery, Expired Air, Trap 1 Subtotal ([1]; individual rats 301M-304M): 0.03 (2×) and 0.02 and 0.08
- Mass Balance Recovery, TOTAL ([1]; (201M/301M to 204M/304M), in % (unit assumed)): 98.72 and 98.32 and 97.83 and 97.98
- Mass Balance Recovery, TOTAL ([1]; Mean, in % (unit assumed)): 98.21
- time after administration by which the vast majority is excreted (urinary excretion kinetics) ([1]; rat, single IV dose, FIG. 6): < 24 h
- total recovery ([1]; rat, single intravenous administration, Groups 2 and 3, FIG. 8): 98.21±0.4%
- Rat Blood PK Samples ([2]; 0.083 hrs, Mean): 12494.00
- Rat Blood PK Samples ([2]; 0.083 hrs, individual rats): 12283.00 and 12343.00 and 12856.00
- Rat Blood PK Samples ([2]; 0.250 hrs, Mean): 7636.87
- Rat Blood PK Samples ([2]; 0.250 hrs, individual rats): 6989.90 and 8433.50 and 7487.20
- Rat Blood PK Samples ([2]; 0.5 hrs, Mean): 4715.77
- Rat Blood PK Samples ([2]; 0.5 hrs, individual rats): 4890.10 and 4595.70 and 4661.50
- Rat Blood PK Samples ([2]; 1 hrs, Mean): 1639.20
- Rat Blood PK Samples ([2]; 1 hrs, individual rats): 1277.80 and 2173.10 and 1466.70
- Rat Blood PK Samples ([2]; 2 hrs, Mean): 497.04
- Rat Blood PK Samples ([2]; 2 hrs, individual rats): 513.73 and 503.14 and 474.26
- Rat Blood PK Samples ([2]; 4 hrs, Mean): 251.03
- Rat Blood PK Samples ([2]; 4 hrs, individual rats): 244.30 and 269.75 and 239.03
- Rat Blood PK Samples ([2]; 8 hrs, Mean): 187.88
- Rat Blood PK Samples ([2]; 8 hrs, individual rats): 207.32 and 187.12 and 169.19
- Rat Blood PK Samples ([2]; 12 hrs, Mean): 145.76
- Rat Blood PK Samples ([2]; 12 hrs, individual rats): 149.71 and 148.64 and 138.94
- Rat Blood PK Samples ([2]; 24 hrs, Mean): 99.45
- Rat Blood PK Samples ([2]; 24 hrs, individual rats): 105.64 and 108.29 and 84.43
- Rat Blood PK Samples ([2]; 48 hrs, Mean): 50.56
- Rat Blood PK Samples ([2]; 48 hrs, individual rats): 49.28 and 52.03 and 50.38
- Rat Blood PK Samples ([2]; 72 hrs, Mean): 24.63
- Rat Blood PK Samples ([2]; 72 hrs, individual rats): 23.54 and 33.09 and 17.27
- Rat Blood PK Samples ([2]; 96 hrs, Mean): 17.23
- Rat Blood PK Samples ([2]; 96 hrs, individual rats): 17.39 and 16.69 and 17.60
- MTD [3]: 40 mg/kg
- safety profile [4]: excellent safety profile
